Literature values as cited in US11931686B1, “Carbon capture process utilizing inert gas medium to assist thermal desorption” (CARBON CAPTURE INC., priority 2022, dated 2024).

Test system: Rat
Details: Rat; Table 1, inert chemical fluids

Row | SMILES | LD50 (Rat)
1 | Cc1ccccc1C [o-Xylene, o-xylene] | 3,600 mg/kg

Same assay, conditions: Rat; Table 3, alcohols

Row | SMILES | LD50 (Rat)
2 | CC(C)CCO [i-Amyl Alcohol] | 1,300 mg/kg

Same assay, conditions: Rat; Table 4, hydrocarbons

Row | SMILES | LD50 (Rat)
3 | CCCCCCCC [Octane] | >5,000 mg/kg
4 | c1ccc2c(c1)CCCC2 [Tetralin] | 2,860 mg/kg

Same assay, conditions: rat, in vivo

Row | SMILES | LD50 (Rat)
5 | Cc1ccc(C(C)C)cc1 [p-Cymene] | 4,750 mg/kg
6 | CCCCO [1-Butanol] | 790 mg/kg
7 | CCOC(=O)c1ccccc1 [Ethyl Benzoate, ethyl benzoate] | 2,100 mg/kg
8 | Clc1ccccc1 [Chlorobenzene] | >2,000 mg/kg
9 | CCC(C)O (centres unmarked) [2-Butanol] | 2,193 mg/kg
10 | CCCO [1-Propanol] | 1,870 mg/kg
11 | CC(C)CO [i-Butanol] | 2,460 mg/kg
12 | C[Si](C)(C)O[Si](C)(C)O[Si](C)(C)O[Si](C)(C)C [MD2M, decamethyltetrasiloxane] | >2,000 mg/kg
13 | CCO [Ethanol] | 7,340 mg/kg
14 | CCC(CC)CO [2-Ethylbutanol] | 1,850 mg/kg
15 | CC(C)O [2-Propanol] | 3,600 mg/kg
16 | CO [Methanol] | 5,628 mg/kg
17 | CCCCCCC [Heptane] | >5,000 mg/kg
18 | Cc1cccc(C)c1 [m-Xylene, m-xylene] | 5,000 mg/kg
19 | CCCCCCCCCCC [Undecane, undecane] | 2,000 mg/kg
20 | CCCCC(CC)CO (centres unmarked) [2-Ethylhexanol] | 3,730 mg/kg

Test system: not given
Details: Table 1

Row | SMILES | Solubility in Water
21 | CCOC(=O)c1ccccc1 [Ethyl Benzoate, ethyl benzoate] | 0.07 g/100 g
22 | C[Si](C)(C)O[Si](C)(C)O[Si](C)(C)O[Si](C)(C)C [MD2M, decamethyltetrasiloxane] | insoluble
23 | Cc1ccccc1C [o-Xylene, o-xylene] | 0.02 g/100 g
